From patent US20230348459A1, “PYRROLIDINE COMPOUND AND USE THEREOF” (SIMCERE PHARMACEUTICAL CO., LTD., priority 2020, published 2023)

Tests used:
[1] = molecular target: estrogen receptors in MCF7 cells (Homo sapiens (Human), UniProt P03372); assay: Degradation of estrogen receptors in MCF7 cells (in-cell western); type: cell-based; conditions: for DC50: 24 hours treatment, read-out: ER level DC50; for Dmax: 24 hours, 0.1 µM fulvestrant = 100% degradation control, read-out: Maximum degradation rate
Description: The purpose of the experiment is to determine the degradation activity of the compounds of the present invention on endogenously expressed estrogen receptors in MCF7 cells, and to evaluate the activity of the compounds according to DC50 and maximum degradation efficiency.
MCF7 cells (ATCC, HTB-22) were cultured in DMEM (Gibco, 11995-065) complete medium containing 10% fetal bovine serum. On the first day of the experiment, MCF7 cells were inoculated in a 384-well plate at a density of 3000 cells/well using the complete medium, and cultured in a 37° C., 5% CO2 cell incubator. The compounds to be tested were dissolved in DMSO with a stock concentration of 10 mM, the solution was diluted with Echo 550 (Labcyte Inc.) and added to the cell culture plate. Each compound with the starting concentration for treatment of 100 nM was subjected to 3-fold gradient dilution with 9 concentration points. A blank control containing 0.5% DMSO was set, and double replicate wells as controls were set at each concentration point. The culture was cultured in a 37° C., 5% CO2 cell incubator for 24 hours. Paraformaldehyde was added to the cell culture medium in each cell culture well, and the final concentration of paraformaldehyde was about 3.7% to fix the cells. After the mixture was reacted for 30 minutes, the supernatant was discarded, and 50 µL of PBS was added to each well for washing once. The cells were treated with PBS containing 0.5% v/v Tween-20 for 30 minutes, and washed with PBS once. A blocking solution (PBS containing 5% BSA, 0.05% Tween-20) was added, and the mixture was incubated at room temperature for 1 hour. The blocking solution was removed, a mixture solution of primary antibodies (anti-ER mAb, Estrogen Receptor α (D8H8) Rabbit mAb, GST, # 8644S, 1 : 1000 dilution; anti-GAPDH mAb, GAPDH(D4C6R) Mouse mAb, GST, #97166S, 1 : 2000 dilution) was added, and the mixture was incubated at room temperature for 3 hours. The culture was washed with PBST (PBS containing 0.05% Tween-20) 3 times. Secondary antibodies for detection (800CW-goat anti-rabbit IgG, LI-COR, P/N: 926-32211, 1 : 1000 dilution; 680RD-goat anti-mouse IgG, LI-COR, #925-68070, 1 : 1000 dilution) were added, and the mixture was incubated at room temperature and in the dark for 45 minutes. After washing with PBST 3 times, the fluorescence signal of each well was read using Odyssey CLx, and the value of Chanel 800 (ER)/Chanel 680 (GAPDH) was calculated. The wells treated with 0.1 µM fulvestrant were used as the 100% degradation control, and the degradation rate at each concentration point was calculated. The data were analyzed and processed by XlLfit, and the degradation activity DC50 and the maximum degradation rate Imax of each compound were calculated.

MCF7 cells = assay: Inhibition of the proliferation of MCF7 cells (CellTiter-Glo); type: cell-based; conditions: Homo sapiens, MCF7, 168 h; 7 days treatment; read-out: MCF-7 cell proliferation inhibition IC50
Description: The purpose of the experiment is to determine the inhibitory effect of the compounds of the present invention on the proliferation of MCF7 cells in vitro, and to evaluate the activity of the compounds according to IC50 and maximum inhibitory efficiency.
MCF7 cells (ATCC, HTB-22) were cultured in DMEM (Gibco, 11995-065) complete medium containing 10% fetal bovine serum. On the first day of the experiment, MCF7 cells were inoculated in a 384-well plate at a density of 500 cells/well using the complete medium, and cultured in a 37° C., 5% CO2 cell incubator overnight. The next day, the compounds to be tested were added for drug treatment, and the compound solution with a stock concentration of 10 mM was diluted with Echo550 (Labcyte Inc.) and transferred to each cell culture well. Each compound with the starting concentration for treatment of 100 nM in cells was subjected to 3-fold gradient dilution with 9 concentration points. A blank control containing 0.3% DMSO was set, and double replicate wells as controls were set at each concentration point. The culture was cultured in a 37° C., 5% CO2 cell incubator for 7 days, and the cell culture plate was taken out on day 8.

MCF-7 intracranial tumor = assay: Growth inhibition in MCF-7 intracranial tumor model in mice; conditions: 250 mg/kg SC once weekly
Description: Animal information: NPG mice (female, 6-8 weeks, body weight: about 17-29 g) were purchased from Beijing Vitalstar Biotechnology Co., Ltd. The mice were fed in SPF environment and each cage position was individually ventilated.
Cell culture: The human breast cancer MCF-7 cell line was cultured in vitro in EMEM (cell culture medium) supplemented with 10% fetal bovine serum, 1% Pen Strep and 10 µg/ml recombinant human insulin in a 37° C., 5% CO2 incubator. Conventional digestion treatment with 0.25% trypsin-EDTA digestion solution was carried out twice weekly for passage. When the cell saturation was 80%-90%, and the number reached the requirement, the cells were collected and counted.
Cell inoculation: 15 µl/(containing 2 × 10^6) MCF-7 cell suspension was inoculated into the brain of mice using a stereotaxic apparatus, a micro-injection pump and a miniature handheld cranial drill, and the mice were subcutaneously inoculated with 17β-estradiol tablets three days before the cell inoculation. On day 8 after cell inoculation, the mice were randomized into groups for administration according to the body weight thereof, and the day of grouping was Day 0.
11 mice were in the vehicle group and 8 mice were in the administration group. Mice in all groups were continuously administered until the mice died, which were euthanized due to poor state or the end of the experiment.
The body weight of the mice was measured twice weekly, and the survival status of the mice was observed.
At the end of the experiment on Day 48, all mice were euthanized.

estrogen receptors in MCF7 cells, sequence (P03372 whole entry): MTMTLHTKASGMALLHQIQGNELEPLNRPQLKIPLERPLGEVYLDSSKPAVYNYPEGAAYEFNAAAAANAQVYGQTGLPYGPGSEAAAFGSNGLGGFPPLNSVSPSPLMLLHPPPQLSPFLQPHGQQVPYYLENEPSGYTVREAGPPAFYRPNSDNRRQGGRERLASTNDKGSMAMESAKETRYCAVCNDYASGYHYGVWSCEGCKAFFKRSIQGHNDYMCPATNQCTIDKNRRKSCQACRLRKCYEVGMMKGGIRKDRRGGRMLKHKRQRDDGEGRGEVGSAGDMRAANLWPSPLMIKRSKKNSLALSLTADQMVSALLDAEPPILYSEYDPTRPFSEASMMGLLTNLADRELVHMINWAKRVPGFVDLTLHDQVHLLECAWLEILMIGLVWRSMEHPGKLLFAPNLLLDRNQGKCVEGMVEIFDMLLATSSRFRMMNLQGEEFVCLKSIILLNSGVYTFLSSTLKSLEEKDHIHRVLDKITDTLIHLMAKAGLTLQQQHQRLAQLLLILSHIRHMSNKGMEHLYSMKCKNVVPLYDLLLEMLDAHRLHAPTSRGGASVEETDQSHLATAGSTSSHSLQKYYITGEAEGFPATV

Row | Compound | DC50 [1] [nM] | Dmax [1] [%] | IC50 (MCF7 cells) [nM] | Body weight of mice (MCF-7 intracranial tumor) | Median survival period (MCF-7 intracranial tumor) [days]
1 | C[C@@H]1Cc2c([nH]c3ccccc23)[C@@H](c2ccc(NC3CCN(CCCF)C3)cn2)N1CC(F)(F)F (stereo partly drawn) [Example 1, N-(1-(3-fluoropropyl)pyrrolidin-3-yl)-6-((1S,3R)-3-methyl-2-(2,2,2-trifluoroethyl)-2,3,4,9-tetrahydro-1H-pyridino[3,4-b]indol-1-yl)pyridine-3-amine] | 0.41 | 106 | 0.58 |  | 
2 | C[C@@H]1Cc2c([nH]c3ccccc23)[C@@H](c2ccc(N[C@@H]3CCN(CCCF)C3)cn2)N1CC(F)(F)F [Example 2] | 8.5 | 92 | 15 |  | 
3 | C[C@]12CC[C@@H]3c4ccc(O)cc4C[C@@H](CCCCCCCCC[S+]([O-])CCCC(F)(F)C(F)(F)F)[C@H]3[C@@H]1CC[C@@H]2O (some centres unmarked) [Fulvestrant, reference compound] |  |  |  | continued to lose weight | 29.5

Now from value to compound, other results behind:

Row | DC50 [1] [nM] | Dmax [1] [%] | IC50 (MCF7 cells) [nM] | Compound | Body weight of mice (MCF-7 intracranial tumor) | Median survival period (MCF-7 intracranial tumor) [days]
4 | 0.58 | 80 | 2.57 | C[C@@H]1Cc2c([nH]c3ccccc23)[C@@H](c2c(F)cc(N[C@@H]3CN(CCCF)C[C@H]3F)cc2F)N1CC(F)(F)F (stereo in doubt) [Example 5, trans-N-(3,5-difluoro-4-((1S,3R)-3-methyl-2-(2,2,2-trifluoroethyl)-2,3,4,9-tetrahydro-1H-pyridino[3,4-b]indol-1-yl)phenyl)-4-fluoro-1-(3-fluoropropyl)pyrrolidin-3-amine] |  | 
5 | 0.5 | 90 | 2.39 | C[C@@H]1CN(CCCF)C[C@H]1Nc1cc(F)c([C@@H]2c3[nH]c4ccccc4c3C[C@@H](C)N2CC(F)(F)F)c(F)c1 (stereo in doubt) [Example 6, trans-N-[3,5-difluoro-4-[(1S,3R)-3-methyl-2-(2,2,2-trifluoroethyl)-1,3,4,9-tetrahydropyridino[3,4-b]indol-1-yl]phenyl]-1-(3-fluoropropyl)-4-methyl-pyrrolidin-3-amine] |  | 
